# Source: patent publication US20250051344A1, “BIFUNCTIONAL SELECTIVE DEGRADERS OF SMARCA2 AND THERAPEUTIC USES THEREOF” (Nurix Therapeutics, Inc., priority 2023, published 2025)
# What was measured:
# SMARCA4 = molecular target: T1, SMARCA4 (Homo sapiens, UniProt P51532); assay: Cellular degradation assay, SMARCA4 (Table 1); format: cell-based
# T1 construct: endogenous in cells
# SMARCA2 = molecular target: T2, SMARCA2 (Homo sapiens, UniProt P51531); assay: SMARCA2 Cellular Degradation Assay (Western blot analysis on Jess platform); format: cell-based; details: for DC50 / Dmax: cellular degradation; for Fold Selectivity SMARCA4/2: ratio DC50 SMARCA4 / DC50 SMARCA2
# T2 construct: endogenous in cells
# T2 sequence (P51531 whole entry, species assumed): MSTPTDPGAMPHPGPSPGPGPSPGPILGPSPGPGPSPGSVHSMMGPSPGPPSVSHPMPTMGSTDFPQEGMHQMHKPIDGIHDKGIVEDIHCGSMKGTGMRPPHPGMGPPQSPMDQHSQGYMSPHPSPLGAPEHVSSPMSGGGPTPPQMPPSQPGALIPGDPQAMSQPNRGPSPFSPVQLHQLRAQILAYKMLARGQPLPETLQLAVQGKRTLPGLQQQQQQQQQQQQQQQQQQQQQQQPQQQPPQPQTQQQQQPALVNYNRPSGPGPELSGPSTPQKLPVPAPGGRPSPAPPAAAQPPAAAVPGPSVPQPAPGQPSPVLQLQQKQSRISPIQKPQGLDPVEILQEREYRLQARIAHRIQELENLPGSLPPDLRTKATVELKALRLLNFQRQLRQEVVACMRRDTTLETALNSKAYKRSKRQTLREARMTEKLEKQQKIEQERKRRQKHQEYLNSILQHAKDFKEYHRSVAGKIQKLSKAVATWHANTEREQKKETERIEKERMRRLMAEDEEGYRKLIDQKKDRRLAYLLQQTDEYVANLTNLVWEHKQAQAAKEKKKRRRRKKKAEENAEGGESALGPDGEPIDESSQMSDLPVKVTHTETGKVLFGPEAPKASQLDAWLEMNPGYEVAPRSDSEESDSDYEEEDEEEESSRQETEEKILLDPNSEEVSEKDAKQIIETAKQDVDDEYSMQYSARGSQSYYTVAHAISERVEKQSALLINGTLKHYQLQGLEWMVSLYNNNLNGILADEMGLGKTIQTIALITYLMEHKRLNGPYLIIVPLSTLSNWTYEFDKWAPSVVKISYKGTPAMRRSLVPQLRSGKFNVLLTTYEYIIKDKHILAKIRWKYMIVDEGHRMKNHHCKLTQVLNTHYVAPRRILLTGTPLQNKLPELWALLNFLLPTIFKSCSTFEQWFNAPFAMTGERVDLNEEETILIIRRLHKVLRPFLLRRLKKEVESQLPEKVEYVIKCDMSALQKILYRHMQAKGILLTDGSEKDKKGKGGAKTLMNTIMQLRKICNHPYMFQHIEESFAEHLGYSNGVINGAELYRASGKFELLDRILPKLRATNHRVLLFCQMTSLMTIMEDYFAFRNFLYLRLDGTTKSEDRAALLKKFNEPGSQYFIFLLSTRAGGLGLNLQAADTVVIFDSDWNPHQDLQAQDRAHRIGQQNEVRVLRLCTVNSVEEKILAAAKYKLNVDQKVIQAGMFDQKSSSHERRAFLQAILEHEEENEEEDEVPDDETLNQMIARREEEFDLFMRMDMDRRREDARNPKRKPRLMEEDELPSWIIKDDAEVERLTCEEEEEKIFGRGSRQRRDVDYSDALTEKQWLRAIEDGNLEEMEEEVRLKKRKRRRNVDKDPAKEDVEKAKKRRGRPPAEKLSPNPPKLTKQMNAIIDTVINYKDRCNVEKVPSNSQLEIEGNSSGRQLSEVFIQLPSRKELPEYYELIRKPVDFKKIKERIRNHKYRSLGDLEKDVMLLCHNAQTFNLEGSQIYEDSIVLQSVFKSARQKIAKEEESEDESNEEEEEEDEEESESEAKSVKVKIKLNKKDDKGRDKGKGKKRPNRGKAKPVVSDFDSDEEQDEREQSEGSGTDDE
# In short: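 Tumor-derived cell pellets (5×10E5-1×10E6 live cells) lysed in RIPA + 0.2% SDS, phosphatase/protease inhibitors, benzonase; 5 μg protein/capillary on Jess; chemiluminescence/fluorescence immunoassay; SMARCA2/actin peak area, % of vehicle.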
# T1 sequence (P51532 whole entry, species assumed): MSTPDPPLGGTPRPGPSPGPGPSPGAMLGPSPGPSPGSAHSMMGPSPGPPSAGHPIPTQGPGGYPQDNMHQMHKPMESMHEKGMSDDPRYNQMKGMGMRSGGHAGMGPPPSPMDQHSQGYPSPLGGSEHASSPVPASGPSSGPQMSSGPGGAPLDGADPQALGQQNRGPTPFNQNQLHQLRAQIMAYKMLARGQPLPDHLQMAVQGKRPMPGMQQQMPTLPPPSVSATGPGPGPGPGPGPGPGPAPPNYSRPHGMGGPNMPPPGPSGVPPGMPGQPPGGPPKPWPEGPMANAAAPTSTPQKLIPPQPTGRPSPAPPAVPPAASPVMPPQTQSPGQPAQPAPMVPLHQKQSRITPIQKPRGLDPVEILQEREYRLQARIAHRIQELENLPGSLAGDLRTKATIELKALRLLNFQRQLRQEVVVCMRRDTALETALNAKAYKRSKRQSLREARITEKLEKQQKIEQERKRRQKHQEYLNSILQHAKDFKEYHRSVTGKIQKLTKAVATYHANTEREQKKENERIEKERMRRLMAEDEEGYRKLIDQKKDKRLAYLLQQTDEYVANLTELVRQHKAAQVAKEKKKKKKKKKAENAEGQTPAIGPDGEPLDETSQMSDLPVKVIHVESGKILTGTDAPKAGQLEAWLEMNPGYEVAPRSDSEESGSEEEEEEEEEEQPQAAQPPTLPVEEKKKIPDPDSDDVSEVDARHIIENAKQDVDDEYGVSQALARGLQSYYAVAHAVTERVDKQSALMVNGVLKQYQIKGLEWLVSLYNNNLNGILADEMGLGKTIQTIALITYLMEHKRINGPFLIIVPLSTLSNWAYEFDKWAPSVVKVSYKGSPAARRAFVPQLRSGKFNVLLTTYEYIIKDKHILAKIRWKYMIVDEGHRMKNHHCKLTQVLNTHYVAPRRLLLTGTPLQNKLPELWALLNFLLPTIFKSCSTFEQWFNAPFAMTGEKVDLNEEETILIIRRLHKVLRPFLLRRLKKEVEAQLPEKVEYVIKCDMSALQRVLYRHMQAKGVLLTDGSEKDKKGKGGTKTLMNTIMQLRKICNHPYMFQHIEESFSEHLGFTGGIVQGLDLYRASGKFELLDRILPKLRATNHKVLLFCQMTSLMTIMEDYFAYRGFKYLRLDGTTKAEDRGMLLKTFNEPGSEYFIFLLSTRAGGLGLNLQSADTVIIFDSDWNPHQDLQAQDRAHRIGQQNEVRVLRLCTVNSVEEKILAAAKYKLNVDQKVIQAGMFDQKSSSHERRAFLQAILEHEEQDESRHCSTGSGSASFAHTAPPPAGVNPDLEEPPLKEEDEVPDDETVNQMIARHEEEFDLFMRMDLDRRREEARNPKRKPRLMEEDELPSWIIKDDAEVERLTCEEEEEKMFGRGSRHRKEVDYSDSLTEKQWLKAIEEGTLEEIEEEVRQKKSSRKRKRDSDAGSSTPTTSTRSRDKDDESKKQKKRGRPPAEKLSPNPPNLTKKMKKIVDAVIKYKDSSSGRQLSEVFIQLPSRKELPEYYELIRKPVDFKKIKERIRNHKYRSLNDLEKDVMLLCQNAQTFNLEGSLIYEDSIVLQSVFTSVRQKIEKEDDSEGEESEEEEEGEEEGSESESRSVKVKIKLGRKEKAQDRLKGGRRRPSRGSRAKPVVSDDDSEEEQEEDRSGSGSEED
Dmax (SMARCA4),DC50 (SMARCA2),Dmax (SMARCA2),Fold Selectivity SMARCA4/2 (SMARCA2),DC50 (SMARCA4),Compound
63.4%,9.76 nM,83.6%,9,87.4 nM,"O=C1CCC(c2ccc(C3CCN(CC(=O)N4CC5(C4)CN(C(=O)C4(Oc6ccccc6Cl)CCN(c6cnnc(-c7ccccc7O)c6)CC4)C5)CC3)cc2)C(=O)N1 (racemic) [Example 113, rac-(r)-3-(4-(1-(2-(6-(4-(2-chlorophenoxy)-1-(6-(2-hydroxyphenyl)pyridazin-4-yl)piperidine-4-carbonyl)-2,6-diazaspiro[3.3]heptan-2-yl)-2-oxoethyl)piperidin-4-yl)phenyl)piperidine-2,6-dione]"
67.1%,76.9 nM,82.7%,6,498 nM,"O=C1CC[C@H](c2ccc(C3CCN(CC(=O)N4CCC(S(=O)(=O)NCC5(c6ccccc6)CCN(c6cnnc(-c7ccccc7O)c6)CC5)CC4)CC3)cc2)C(=O)N1 (racemic) [Example 109, rac-1-(2-(4-(4-(2,6-dioxopiperidin-3-yl)phenyl)piperidin-1-yl)acetyl)-n-((1-(6-(2-hydroxyphenyl)pyridazin-4-yl)-4-phenylpiperidin-4-yl)methyl)piperidine-4-sulfonamide]"
26%,11.9 nM,72.8%,842,,"CC(C)c1cc(C2(C(=O)N(C)C3CCN(C4COC5(CCN(c6ccc([C@H]7CCC(=O)NC7=O)cc6)CC5)C4)CC3)CCN(c3cnnc(-c4ccccc4O)c3)CC2)no1 (mixture of isomers) [Example 59, N-{1-[(3RS)-8-{4-[(3R)-2,6-dioxopiperidin-3-yl]phenyl}-1-oxa-8-azaspiro[4.5]decan-3-yl]piperidin-4-yl}-1-[6-(2-hydroxyphenyl)pyridazin-4-yl]-N-methyl-4-[5-(propan-2-yl)-1,2-oxazol-3-yl]piperidine-4-carboxamide]"
72.9%,0.4 nM,96.2%,51,20.4 nM,"Cn1ccc(OC2(C(=O)N3CC4(CN(CCC5CCN(c6cccc7c6n(C)c(=O)n7C6CCC(=O)NC6=O)CC5)C4)C3)CCN(c3cnnc(-c4ccccc4O)c3)CC2)n1 (racemic) [Example 67, rac-3-(4-(4-(2-(6-(1-(6-(2-hydroxyphenyl)pyridazin-4-yl)-4-((1-methyl-1H-pyrazol-3-yl)oxy)piperidine-4-carbonyl)-2,6-diazaspiro[3.3]heptan-2-yl)ethyl)piperidin-1-yl)-3-methyl-2-oxo-2,3-dihydro-1h-benzo[d]imidazol-1-yl)piperidine-2,6-dione]"
0.46%,,5.79%,1,,"O=C1CCC(c2ccc(N3CCN(C(=O)C4CC45CCN(C(=O)C4(c6ccccc6)CCN(c6cnnc(-c7ccccc7O)c6)CC4)C5)CC3)cc2)C(=O)N1 (racemic) [Example 29, rac-(3R)-3-{4-[4-(5-{1-[6-(2-hydroxyphenyl)pyridazin-4-yl]-4-phenylpiperidine-4-carbonyl}-5-azaspiro[2.4]heptane-1-carbonyl)piperazin-1-yl]phenyl}piperidine-2,6-dione]"
3.22%,,44.8%,1,,"O=C1CC[C@H](c2ccc(N3CCC(CN4CC5CCN(C(=O)C6(c7ccccc7)CCN(c7cnnc(-c8ccccc8O)c7)CC6)CC54)CC3)cc2)C(=O)N1 (stereo partly drawn) [Example 38, (3R)-3-(4-{4-[(3-{1-[6-(2-hydroxyphenyl)pyridazin-4-yl]-4-phenylpiperidine-4-carbonyl}-3,8-diazabicyclo[4.2.0]octan-8-yl)methyl]piperidin-1-yl}phenyl)piperidine-2,6-dione]"
2.09%,,7.19%,1,,"O=C1CC[C@H](c2ccc(N3CCC(CN4CC5CC(NC(=O)C6(c7ccccc7)CCN(c7cnnc(-c8ccccc8O)c7)CC6)C4C5)CC3)cc2)C(=O)N1 (stereo partly drawn) [Example 47, N-{2-[(1-{4-[(3R)-2,6-dioxopiperidin-3-yl]phenyl}piperidin-4-yl)methyl]-2-azabicyclo[2.2.1]heptan-6-yl}-1-[6-(2-hydroxyphenyl)pyridazin-4-yl]-4-phenylpiperidine-4-carboxamide]"
20.2%,136 nM,53.4%,73.54,,"CC1CC2CN(CC3CCN(c4ccc([C@H]5CCC(=O)NC5=O)cc4)CC3)CC2N1C(=O)C1(c2ccccc2)CCN(c2cnnc(-c3ccccc3O)c2)CC1 (stereo partly drawn) [Example 50, (3R)-3-(4-{4-[(1-{1-[6-(2-hydroxyphenyl)pyridazin-4-yl]-4-phenylpiperidine-4-carbonyl}-2-methyl-hexahydropyrrolo[2,3-c]pyrrol-5-yl)methyl]piperidin-1-yl}phenyl)piperidine-2,6-dione]"

# Further lines, the compound ahead of its results:
Compound,Dmax (SMARCA4),DC50 (SMARCA2),Dmax (SMARCA2),Fold Selectivity SMARCA4/2 (SMARCA2),DC50 (SMARCA4)
"O=C1CCC(c2ccc(N3CCC(CN4CC5(C4)CN(C(=O)C4(c6cccnc6)CCN(c6cnnc(-c7ccccc7O)c6)CC4)C5)CC3)cc2)C(=O)N1 (racemic) [Example 34, rac-(3R)-3-(4-{4-[(6-{1-[6-(2-hydroxyphenyl)pyridazin-4-yl]-4-(pyridin-3-yl)piperidine-4-carbonyl}-2,6-diazaspiro[3.3]heptan-2-yl)methyl]piperidin-1-yl}phenyl)piperidine-2,6-dione]",30.6%,47 nM,58.6%,212.72,
"O=C1CC[C@H](c2ccc(N3CCC(CN4CCC5CN(C(=O)C6(c7ccccc7)CCN(c7cnnc(-c8ccccc8O)c7)CC6)C5C4)CC3)cc2)C(=O)N1 (stereo partly drawn) [Example 51, (3R)-3-(4-{4-[(8-{1-[6-(2-hydroxyphenyl)pyridazin-4-yl]-4-phenylpiperidine-4-carbonyl}-3,8-diazabicyclo[4.2.0]octan-3-yl)methyl]piperidin-1-yl}phenyl)piperidine-2,6-dione]",0.85%,,26.7%,1,
"CC(N[C@H]1CC[C@@H](NC(=O)C2(c3ccccc3)CCN(c3cnnc(-c4ccccc4O)c3)CC2)CC1)C1CCN(c2ccc([C@H]3CCC(=O)NC3=O)cn2)CC1 (mixture of isomers) [Example 147, 1-[6-(2-hydroxyphenyl)pyridazin-4-yl]-4-phenyl-N-[(1,4s)-4-{[1-(1-{5-[(3rs)-2,6-dioxopiperidin-3-yl]pyridin-2-yl}piperidin-4-yl)ethyl]amino}cyclohexyl]piperidine-4-carboxamide]",64.5%,13.7 nM,76.8%,3,47.3 nM
"CN(C(=O)C1(c2ccccc2)CCN(c2cnnc(-c3ccccc3O)c2)CC1)C1CCN(CC2CCN(c3ccc([C@H]4CCC(=O)NC4=O)cc3)CC2)C2(CCCCC2)C1 (mixture of isomers) [Example 153, N-[(4RS)-1-[(1-{4-[(3R)-2,6-dioxopiperidin-3-yl]phenyl}piperidin-4-yl)methyl]-1-azaspiro[5.5]undecan-4-yl]-1-[6-(2-hydroxyphenyl)pyridazin-4-yl]-N-methyl-4-phenylpiperidine-4-carboxamide]",86.2%,10.3 nM,92.2%,5,47.5 nM
"O=C1CCC(c2ccc(N3CCC(CN4CCN(C(=O)C5(c6ccccc6)CCN(c6cnnc(-c7ccccc7O)c6)CC5)CC4)CC3)cc2)C(=O)N1 (racemic) [Example 6, rac-(3R)-3-(4-{4-[(4-{1-[6-(2-hydroxyphenyl)pyridazin-4-yl]-4-phenylpiperidine-4-carbonyl}piperazin-1-yl)methyl]piperidin-1-yl}phenyl)piperidine-2,6-dione]",31.5%,121 nM,63.6%,82.86,
"O=C1CCC(c2ccc(OC3CCN(C(=O)C4(c5ccccc5)CCN(c5cnnc(-c6ccccc6O)c5)CC4)CC3)cc2)C(=O)N1 (racemic) [Example 4, rac-(3R)-3-{4-[(1-{1-[6-(2-hydroxyphenyl)pyridazin-4-yl]-4-phenylpiperidine-4-carbonyl}piperidin-4-yl)oxy]phenyl}piperidine-2,6-dione]",9.4%,,16.4%,1,
"O=C1CCC(c2ccc(N3CCC(CN4CC5(C4)CN(CC4(c6ccccc6)CCN(c6cnnc(-c7ccccc7O)c6)CC4)C5)CC3)cc2)C(=O)N1 (racemic) [Example 44, rac-(3R)-3-[4-(4-{[6-({-[6-(2-hydroxyphenyl)pyridazin-4-yl]-4-phenylpiperidin-4-yl}methyl)-2,6-diazaspiro[3.3]heptan-2-yl]methyl}piperidin-1-yl)phenyl]piperidine-2,6-dione]",77.5%,6.22 nM,86.6%,3.95,24.6 nM
"Cc1cc(C2(C(=O)N(C)C3CCN(CCC4CCN(c5ccc(C6CCC(=O)NC6=O)cc5)CC4)CC3)CCN(c3cnnc(-c4ccccc4O)c3)CC2)on1 (racemic) [Example 88, rac-N-{1-[2-(1-{4-[(3R)-2,6-dioxopiperidin-3-yl]phenyl}piperidin-4-yl)ethyl]piperidin-4-yl}-1-[6-(2-hydroxyphenyl)pyridazin-4-yl]-N-methyl-4-(3-methyl-1,2-oxazol-5-yl)piperidine-4-carboxamide]",20.2%,7.76 nM,78.4%,1289,
"O=C1CC[C@H](c2ccc(N3CCC(CN4CCCN(C(=O)C5(c6ccccc6)CCN(c6cnnc(-c7ccccc7O)c6)CC5)CC4)CC3)cc2)C(=O)N1 [Example 46, (3R)-3-(4-{4-[(4-{1-[6-(2-hydroxyphenyl)pyridazin-4-yl]-4-phenylpiperidine-4-carbonyl}-1,4-diazepan-1-yl)methyl]piperidin-1-yl}phenyl)piperidine-2,6-dione]",45.1%,33.7 nM,63.3%,297.00,
